Among the data in patent US4863963A, “Novel cinnamoylamide derivatives” (Ono Pharmaceutical Co., Ltd., priority 1987, dated 1989) are IC50 values, retold here.

The target in the assay is 5α-reductase. The assay is described as follows: Inhibitory activity on 5α-reductase in vitro (conversion of [4-C^14]-testosterone to dihydrotestosterone). It counts as biochemical. To be noted: male rat prostate enzyme, 60 mins at 37° C., pH 7.4; compounds of the present invention. On the procedure:
Inhibitory activity on 5-reductase in vitro
The test was carried out with reference to the method of J. Shimazaki et al [See Endocrinol, Japon., 18, 179 (1971)).]
Male rat's prostate (4 g) was homogenized with its triple volume of 0.1M HEPES buffer (PH 7.4) including 0.25M cane sugar and was centrifuged at 3000 r.p.m. for 10 mins.
The precipitate was suspended into the buffer solution described above (10 ml), and the suspension was centrifuged at 3000 r.p.m for 5 mins. The resulting precipitate was suspended in the buffer solution(3 ml) described above and was used as a sauce of enzyme.
A reaction mixture (total volume 0.1 ml) of [4-C^14 ]-testosterone (1.5 n mol, 1.5×10^3 cpm), NADPH (0.5 μmol), enzyme solution (0.03 ml) described above and several kinds of concentration of the compounds in the present invention was incubated for 60 mins at 37° C. Enzyme reaction was quenched by addition of a mixture (0.4 ml) of chloroform and methanol (1:2), and the mixture was centrifuged at 2000 r.p.m for 3 mins. The supernatant (50 μl) was spotted on silica gel thin layer plate. The spot on the plate was developed with a mixture of chloroform, methanol and acetic acid (99.2:0. 6:0.2). Radioactivity of dihydrotestosteron generated on plate was measured by TLC scanner of radio-autography and inhibitory ratio was calculated.
The term IC50 denotes the point on the concentration scale where inhibition reaches its midpoint. In turn, `CCCCCOc1c(OC)cc(/C(C)=C/C(=O)Nc2ccccc2OCCCC(=O)O)cc1OC` [Example 1-1, 4-[2-(3,5-dimethoxy-4-pentyloxy-β-methylcinnomoylamino)phenoxyl] butanoic acid] yielded an IC50 of 1.6 µM.

`CCCCCOc1ccc(/C(C)=C/C(=O)Nc2ccccc2OCCCC(=O)O)c(Cl)c1Cl` [Example 1-5, 4-[2-(2,3-dichloro-4-pentyloxy-β-methylcinnomoylamino)phenoxy] butanoic acid]: the midpoint of inhibition, the IC50, lay at 5.6 µM.

Compound `CCCCCOc1c(Cl)cc(/C(C)=C/C(=O)Nc2ccccc2OCCCC(=O)O)cc1Cl` [Example 1, 4-[2-(3,5-dichloro-4-pentyloxy-β-methylcinnamoylamino)phenoxy]butanoic acid] came in with an IC50 of 0.09 µM.

`C/C(=C\C(=O)Nc1ccccc1OCCCC(=O)O)c1ccc(CC(C)C)cc1` [Example 1-10, 4-[2-(4-isobutyl-β-methylcinnamoylamino)phenoxy] butanoic acid] gave a concentration for half-maximal inhibition (IC50) of 0.11 µM.

The compound `CCC(C)c1ccc(/C(C)=C/C(=O)Nc2ccccc2OCCCC(=O)O)cc1` (stereo not drawn) [Example 1-14, 4-[2-(4-sec-butyl-β-methylcinnomoylamino)phenoxy] butanoic acid] returned an IC50 of 0.28 µM.

Regarding `COc1c(C(C)(C)C)cc(/C(C)=C/C(=O)Nc2ccccc2OCCCC(=O)O)cc1C(C)(C)C` [Example 1-4, 4-[2-(3,5-di-tert-butyl-methoxy-β-methylcinnamoylamino)phenoxy] butanoic acid], the IC50 was 1 µM.

As for `CCCc1ccc(/C(C)=C/C(=O)Nc2ccccc2OCCCC(=O)O)cc1` [Example 1-12, 4-[2-(4-propyl-β-methylcinnamoylamino)phenoxy] utanoic acid], the IC50 is 0.26 µM.

On to `CCCCOc1cc(/C(C)=C/C(=O)Nc2ccccc2OCCCC(=O)O)cc(OCCCC)c1OCCCC` [Example 1-8], for which half-maximal inhibition (IC50) was put at 1.7 µM.

In turn, `CCCCCOc1cc(/C(C)=C/C(=O)Nc2ccccc2OCCCC(=O)O)cc(OCCCCC)c1OCCCCC` [Example 1-2] returned a half-maximal inhibitory concentration (IC50) of 1.8 µM.

`CCCCCOc1c(C)cc(/C(C)=C/C(=O)Nc2ccccc2OCCCC(=O)O)cc1C` [Example 1-3, 4-[2-(3,5-dimethyl-4-pentyloxy-β-methylcinnamoylamino)phenoxy] butanoic acid] gave a concentration for half-maximal inhibition (IC50) of 2.1 µM. The IC50 values of the last two compounds are within 1.5-fold of each other.

For `CCCCCOc1cc(/C=C(\C)C(=O)Nc2ccccc2OCCCC(=O)O)cc(OCCCCC)c1OCCCCC` [Example 1-16], the IC50 was 0.53 µM.

With `CCCCc1ccc(/C(C)=C/C(=O)Nc2ccccc2OCCCC(=O)O)cc1` [Example 1-11, 4-[2-(4-butyl-β-methylcinnomoylamino)phenoxy] butanoic acid], half-maximal inhibition (IC50) was put at 0.2 µM.

In the case of `CCCOc1cc(/C(C)=C/C(=O)Nc2ccccc2OCCCC(=O)O)cc(OCCC)c1OCCC` [Example 1-7, 4-[2-(3,4,5-tripropoxy-β-methylcinnamoylamino)phenoxy] butanoic acid], half-maximal inhibition (IC50) was put at 3.3 µM.

Take `CCCCOc1c(Cl)cc(/C(C)=C/C(=O)Nc2ccccc2OCCCC(=O)O)cc1Cl` [Example 1-6, 4-[2-(3,5-dichloro-4-butoxy-β-methylcinnamoylamino)phenyoxy] butanoic acid]: the half-inhibitory concentration (IC50) worked out at 1.6 µM.

In turn, `CCCCCOc1cc(/C(C)=C/C(=O)Nc2ccccc2OCCCC(=O)O)c([N+](=O)[O-])cc1OCCCCC` [Example 1-15, 4-[2-(2-nitro-4,5-dipentyloxy-β-methylcinnomoylamino)phenoxy] butanoic acid] yielded an IC50 of 2.2 µM.

The compound `CCCCOc1ccc(/C(C)=C/C(=O)Nc2ccccc2OCCCC(=O)O)cc1` [Example 1-13, 4-[2-(4-butoxy-β-methylcinnamoylamino)phenoxy] utanoic acid] came in with an IC50 of 0.38 µM.

In turn, `CCOc1cc(/C(C)=C/C(=O)Nc2ccccc2OCCCC(=O)O)cc(OCC)c1OCC` [Example 1-9, 4-[2-(3,4,5-triethoxy-β-methylcinnamoylamino)phenoxy] butanoic acid] displayed a concentration for half-maximal inhibition (IC50) of 9.7 µM. This IC50 is about 26-fold higher than that of the compound before.
